Assay type in all cases: binding
In assay [1] the target is T1, HeLa cell extract proteins (Homo sapiens, UniProt O14980).
T1 construct: endogenous in cells; host or cells: HeLa cell extract

Assay [2] deals with T2, HeLa cell extract proteins (Homo sapiens, UniProt O75352).
T2 construct: endogenous in cells; host or cells: HeLa cell extract
T2 sequence (O75352 1-247): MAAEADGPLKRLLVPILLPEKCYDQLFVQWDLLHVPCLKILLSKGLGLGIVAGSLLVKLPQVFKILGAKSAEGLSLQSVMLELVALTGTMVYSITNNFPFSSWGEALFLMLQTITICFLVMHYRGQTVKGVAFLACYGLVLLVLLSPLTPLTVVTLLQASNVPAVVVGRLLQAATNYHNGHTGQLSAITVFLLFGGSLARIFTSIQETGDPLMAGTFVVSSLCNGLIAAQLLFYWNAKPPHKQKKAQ

In assay [3] the target is T3, HeLa cell extract proteins (Homo sapiens, UniProt P16152).
T3 construct: endogenous in cells; host or cells: HeLa cell extract
T3 sequence (P16152 1-277): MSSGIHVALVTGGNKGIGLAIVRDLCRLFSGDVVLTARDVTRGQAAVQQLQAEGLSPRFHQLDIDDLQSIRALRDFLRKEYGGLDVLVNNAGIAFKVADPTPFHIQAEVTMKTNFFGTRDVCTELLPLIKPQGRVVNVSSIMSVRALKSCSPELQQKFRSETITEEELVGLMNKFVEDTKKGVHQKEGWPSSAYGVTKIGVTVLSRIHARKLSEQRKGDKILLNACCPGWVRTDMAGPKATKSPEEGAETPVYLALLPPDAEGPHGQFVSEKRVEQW

In assay [4] the target is T4, HeLa cell extract proteins (Homo sapiens, UniProt P22314).
T4 construct: endogenous in cells; host or cells: HeLa cell extract
T4 sequence (P22314 1-1058): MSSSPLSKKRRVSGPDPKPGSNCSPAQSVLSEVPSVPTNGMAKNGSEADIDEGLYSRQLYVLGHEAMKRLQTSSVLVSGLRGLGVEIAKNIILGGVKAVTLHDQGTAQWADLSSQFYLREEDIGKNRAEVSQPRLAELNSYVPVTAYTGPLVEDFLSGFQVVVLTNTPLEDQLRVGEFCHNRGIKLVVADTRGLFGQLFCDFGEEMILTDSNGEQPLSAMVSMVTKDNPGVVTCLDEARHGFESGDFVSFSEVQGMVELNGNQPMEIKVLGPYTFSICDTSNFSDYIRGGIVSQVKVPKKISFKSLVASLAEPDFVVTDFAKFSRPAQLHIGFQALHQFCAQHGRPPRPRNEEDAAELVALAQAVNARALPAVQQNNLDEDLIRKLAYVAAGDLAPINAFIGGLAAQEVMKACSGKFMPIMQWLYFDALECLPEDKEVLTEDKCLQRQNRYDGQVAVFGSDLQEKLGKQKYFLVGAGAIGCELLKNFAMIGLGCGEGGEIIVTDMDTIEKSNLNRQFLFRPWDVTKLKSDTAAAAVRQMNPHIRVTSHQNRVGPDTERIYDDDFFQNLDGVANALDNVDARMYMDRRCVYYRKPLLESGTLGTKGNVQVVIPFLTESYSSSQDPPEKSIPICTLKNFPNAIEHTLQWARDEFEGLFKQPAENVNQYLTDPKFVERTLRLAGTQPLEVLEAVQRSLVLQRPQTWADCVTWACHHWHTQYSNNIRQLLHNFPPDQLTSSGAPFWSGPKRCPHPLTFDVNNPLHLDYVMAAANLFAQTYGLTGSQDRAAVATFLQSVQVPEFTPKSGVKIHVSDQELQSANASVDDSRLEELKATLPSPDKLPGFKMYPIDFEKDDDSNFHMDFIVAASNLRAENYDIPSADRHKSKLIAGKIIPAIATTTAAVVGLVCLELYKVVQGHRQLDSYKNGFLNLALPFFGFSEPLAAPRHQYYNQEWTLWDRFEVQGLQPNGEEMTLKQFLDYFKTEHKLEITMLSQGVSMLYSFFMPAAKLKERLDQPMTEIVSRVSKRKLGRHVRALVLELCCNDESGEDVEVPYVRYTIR

Assay [5] concerns the target T5, HeLa cell extract proteins (Homo sapiens, UniProt P24539).
T5 construct: endogenous in cells; host or cells: HeLa cell extract
T5 sequence (P24539 43-256): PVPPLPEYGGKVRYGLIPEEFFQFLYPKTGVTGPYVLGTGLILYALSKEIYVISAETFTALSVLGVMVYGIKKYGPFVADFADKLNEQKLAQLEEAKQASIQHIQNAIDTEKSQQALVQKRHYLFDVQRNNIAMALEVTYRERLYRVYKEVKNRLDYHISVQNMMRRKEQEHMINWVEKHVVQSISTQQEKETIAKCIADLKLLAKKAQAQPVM

Assay [6] has as its target T6, HeLa cell extract proteins (Homo sapiens, UniProt P30876).
T6 construct: endogenous in cells; host or cells: HeLa cell extract

In assay [7] the target is T7, HeLa cell extract proteins (Homo sapiens, UniProt Q13085).
T7 construct: endogenous in cells; host or cells: HeLa cell extract

Assay [8] deals with T8, HeLa cell extract proteins (Homo sapiens, UniProt Q14258).
T8 construct: endogenous in cells; host or cells: HeLa cell extract
T8 sequence (Q14258 whole entry): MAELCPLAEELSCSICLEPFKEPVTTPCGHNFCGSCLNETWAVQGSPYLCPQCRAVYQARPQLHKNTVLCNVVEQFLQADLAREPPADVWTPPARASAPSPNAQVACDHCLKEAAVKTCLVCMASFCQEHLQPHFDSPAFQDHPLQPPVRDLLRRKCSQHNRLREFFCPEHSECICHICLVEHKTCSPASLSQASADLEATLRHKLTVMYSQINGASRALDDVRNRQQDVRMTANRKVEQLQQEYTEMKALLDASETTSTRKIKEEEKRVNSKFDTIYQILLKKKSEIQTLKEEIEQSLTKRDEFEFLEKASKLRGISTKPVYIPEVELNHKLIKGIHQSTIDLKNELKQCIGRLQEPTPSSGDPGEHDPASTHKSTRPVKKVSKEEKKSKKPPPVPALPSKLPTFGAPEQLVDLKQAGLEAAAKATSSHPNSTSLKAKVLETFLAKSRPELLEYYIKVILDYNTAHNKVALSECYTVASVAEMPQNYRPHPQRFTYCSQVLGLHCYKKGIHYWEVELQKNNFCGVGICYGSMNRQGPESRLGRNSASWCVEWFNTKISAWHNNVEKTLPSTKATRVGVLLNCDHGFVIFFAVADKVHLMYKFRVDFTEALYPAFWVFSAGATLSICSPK

Assay [9] concerns the target T9, HeLa cell extract proteins (Homo sapiens, UniProt Q9UK99).
T9 construct: endogenous in cells; host or cells: HeLa cell extract
T9 sequence (Q9UK99 1-471): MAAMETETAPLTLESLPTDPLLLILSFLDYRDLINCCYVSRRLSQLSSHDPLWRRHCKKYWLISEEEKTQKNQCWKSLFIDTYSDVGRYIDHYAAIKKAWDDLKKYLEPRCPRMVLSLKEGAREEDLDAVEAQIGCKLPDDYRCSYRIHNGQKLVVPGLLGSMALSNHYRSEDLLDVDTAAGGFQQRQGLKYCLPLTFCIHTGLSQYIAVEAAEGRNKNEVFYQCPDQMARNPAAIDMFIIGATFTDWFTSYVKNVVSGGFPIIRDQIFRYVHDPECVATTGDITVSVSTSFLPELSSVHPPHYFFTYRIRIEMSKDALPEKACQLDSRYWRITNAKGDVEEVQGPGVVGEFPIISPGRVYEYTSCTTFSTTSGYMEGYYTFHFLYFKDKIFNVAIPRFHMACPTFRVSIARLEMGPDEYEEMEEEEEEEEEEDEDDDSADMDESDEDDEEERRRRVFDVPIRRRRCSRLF

The mark [10] stands for this setting: HeLa, protein FBXO3 (ISOFORM 1 OF F-BOX ONLY PROTEIN 3).

Like-named read-outs stand apart in the source and are kept apart here.

T1 sequence (O14980 whole entry): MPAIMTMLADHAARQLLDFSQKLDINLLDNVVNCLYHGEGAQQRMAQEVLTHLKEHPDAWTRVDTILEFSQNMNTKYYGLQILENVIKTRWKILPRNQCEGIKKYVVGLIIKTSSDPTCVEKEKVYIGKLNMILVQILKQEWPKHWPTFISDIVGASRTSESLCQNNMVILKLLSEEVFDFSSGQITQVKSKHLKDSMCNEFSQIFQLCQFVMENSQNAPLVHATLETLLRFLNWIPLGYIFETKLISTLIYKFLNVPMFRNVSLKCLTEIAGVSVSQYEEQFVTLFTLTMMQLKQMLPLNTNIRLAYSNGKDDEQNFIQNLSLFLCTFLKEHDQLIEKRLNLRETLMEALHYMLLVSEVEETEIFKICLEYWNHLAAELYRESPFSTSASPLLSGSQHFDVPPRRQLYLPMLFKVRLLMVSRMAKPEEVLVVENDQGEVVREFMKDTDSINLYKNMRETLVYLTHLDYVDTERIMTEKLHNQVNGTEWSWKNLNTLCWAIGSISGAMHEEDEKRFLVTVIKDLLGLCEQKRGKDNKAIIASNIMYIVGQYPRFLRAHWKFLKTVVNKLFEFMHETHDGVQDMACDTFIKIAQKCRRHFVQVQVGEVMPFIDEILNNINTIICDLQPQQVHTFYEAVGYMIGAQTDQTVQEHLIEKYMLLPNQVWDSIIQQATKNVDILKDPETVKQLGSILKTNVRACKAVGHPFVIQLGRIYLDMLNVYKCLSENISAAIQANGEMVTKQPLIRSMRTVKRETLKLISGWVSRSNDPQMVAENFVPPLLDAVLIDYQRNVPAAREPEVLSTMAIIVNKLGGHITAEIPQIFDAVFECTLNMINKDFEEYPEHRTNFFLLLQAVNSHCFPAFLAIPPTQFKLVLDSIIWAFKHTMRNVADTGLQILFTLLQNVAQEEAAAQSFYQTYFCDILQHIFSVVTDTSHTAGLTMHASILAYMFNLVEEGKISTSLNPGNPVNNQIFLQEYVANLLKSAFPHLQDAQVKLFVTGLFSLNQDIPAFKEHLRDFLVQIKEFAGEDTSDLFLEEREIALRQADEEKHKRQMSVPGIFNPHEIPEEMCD

With `Nc1nc2cccc(-c3ccccc3)c2n1Cc1ccc(Cl)c(Cl)c1` [compound 3], the “fold changes relative to vehicle control” value is on record as 1.03 in assay [1] (HeLa, protein XPO1); 1.05 in assay [2] (protein MPDU1, HeLa); 1.02 in assay [3] (HeLa, protein CBR1); 0.75 in assay [4] (protein UBA1, HeLa); 0.88 in [5] (HeLa, protein ATP5F1); 0.98 in assay [6] (HeLa, protein POLR2B). Besides, the “fold changes relative to vehicle control” value worked out at 1.04 in assay [7] (protein ACACA, HeLa); 0.97 in assay [8] (HeLa, protein TRIM25); 0.91 in assay [9] (protein FBXO3, HeLa).
For the molecule `NCCOCCOCC(=O)Nc1nc2ncc(CNc3ccc(C(=O)NC(CCC(=O)O)C(=O)O)cc3)nc2c(=O)[nH]1` (stereo not drawn) [compound 6], the “fold changes relative to vehicle control” value came to 0.93 in assay [1] (HeLa, captured protein XPO1); 1.08 in assay [2] (HeLa, protein MPDU1); 0.89 in [3] (protein CBR1, HeLa); 1.15 in [4] (HeLa, protein UBA1); 0.96 in assay [5] (HeLa, captured protein ATP5F1); 1.07 in [6] (protein POLR2B, HeLa). The “fold changes relative to vehicle control” value in assay [7] (HeLa, captured protein ACACA) stood at 1.12; in assay [8] (HeLa, captured protein TRIM25) it was 0.98; in assay [9] (setting [10]), 1.01.
Consider `Nc1nc2[nH]cc(CCc3ccc(C(=O)N[C@@H](CCC(=O)O)C(=O)O)cc3)c2c(=O)[nH]1` [PTX, pemetrexed], for which the “fold changes relative to vehicle control” value in assay [1] amounted to 0.86; in assay [2], 1; in assay [3], 0.8; in assay [4], 0.96; in assay [5], 1.13; in assay [6], 0.89. Further, the figures for the “fold changes relative to vehicle control” value in assay [7], in assay [8] and in assay [9] were 1.05, 0.87 and 1.04, respectively.
`Nc1nc2c(c(=O)[nH]1)N(C=O)C(CNc1ccc(C(=O)N[C@@H](CCC(=O)O)C(=O)O)cc1)CN2` (stereo partly drawn) [LEU, leucovorin]: the “fold changes relative to vehicle control” value in assay [1] (HeLa, captured protein XPO1) was 0.92; in assay [2] (HeLa, protein MPDU1), 0.93; in assay [3] (protein CBR1, HeLa) it was 0.81; in [4] (HeLa, protein UBA1), 1.05; in [5] (HeLa, captured protein ATP5F1), 1.15; in assay [6] (protein POLR2B, HeLa) it was 0.8. In addition, the “fold changes relative to vehicle control” value worked out at 1.02 in assay [7] (HeLa, captured protein ACACA); 0.98 in [8] (HeLa, captured protein TRIM25); 1.11 in assay [9] (setting [10]).
Regarding `CCCCCCOc1ccc(Cc2cnc(N)nc2N)cc1` [compound 1], the “fold changes relative to vehicle control” value amounted to 0.99 in assay [1] (HeLa, protein XPO1); 1.04 in [2] (protein MPDU1, HeLa); 0.89 in assay [3] (HeLa, protein CBR1); 0.77 in assay [4] (protein UBA1, HeLa); 1.05 in assay [5] (HeLa, protein ATP5F1); 0.94 in assay [6] (HeLa, protein POLR2B). Besides, the “fold changes relative to vehicle control” value in [7] (protein ACACA, HeLa) was 1.09; in assay [8] (HeLa, protein TRIM25), 0.9; in assay [9] (protein FBXO3, HeLa), 0.98.
Turning to `NCCCNc1ccc(C(=O)NC(CCC(=O)O)C(=O)O)cc1` (stereo not drawn) [compound 7], the “fold changes relative to vehicle control” value turned out to be 0.94 in [1] (HeLa, captured protein XPO1); 0.99 in assay [2] (HeLa, protein MPDU1); 0.92 in assay [3] (protein CBR1, HeLa); 0.92 in assay [4] (HeLa, protein UBA1); 1.05 in assay [5] (HeLa, captured protein ATP5F1); 0.91 in assay [6] (protein POLR2B, HeLa). Also, the “fold changes relative to vehicle control” value in [7] (HeLa, captured protein ACACA) was 1.17; in [8] (HeLa, captured protein TRIM25), 0.94; in assay [9] (setting [10]) it was 0.99.
In the case of `CCCCCCOc1cccc(Cc2cnc(N)nc2N)c1` [compound 2], the “fold changes relative to vehicle control” value is recorded as 1.09 in [1] (HeLa, protein XPO1); 0.89 in assay [2] (protein MPDU1, HeLa); 1.14 in assay [3] (HeLa, protein CBR1); 1.62 in assay [4] (protein UBA1, HeLa); 0.85 in assay [5] (HeLa, protein ATP5F1); 1.42 in assay [6] (HeLa, protein POLR2B). Moreover, the “fold changes relative to vehicle control” value is recorded as 1.06 in assay [7] (protein ACACA, HeLa); 1.07 in [8] (HeLa, protein TRIM25); 1.05 in assay [9] (protein FBXO3, HeLa).
